“And” between values parts separate entries of the source, which are not always exact repeats. Equal entries are not always repeated. Where two headings read alike, the source gives them in different places.
Assays:
[1] = biological solutions, particularly plasma and blood; cited from earlier work
Pyridostigmine Antibody = test: Cross-reactivity with pyridostigmine antibody in RIA (competition with labeled pyridostigmine); assay type: binding, rabbit (male New Zealand white); details: labeled pyridostigmine 5000 DPM; maximum tested 500 ng
Experimental: Antibodies to the pyridostigmine-BSA immunogen were produced by injecting male New Zealand white rabbits. Prior to injection, the immunogen was emulsified with an equal volume of complete Freund's adjuvant, purchased from Difco Laboratories. The initial immunization consisted of 0.8 mg of protein injected intracutaneously into the back of the rabbits. Booster injections containing 0.8 mg of immunogen and incomplete Freund's adjuvant were administered every one or two months for the next seven months. Blood was collected one week after each booster injection from the central ear vein. The blood was allowed to clot at room temperature and then centrifuged at 1500×g for 15 minutes. The separated serum was stored frozen at -20° C. until assayed for the presence of pyridostigmine antibody. […] FIG. 1 is the antibody dilution curve for pyridostigmine.
In the assay procedure tritiated pyridostigmine having specificity of […] was used as tracer. The dilution of tracer, antisera and pyridostigmine standards were made using 0.01 M phosphate buffer containing 150 mM sodium chloride with a pH of 7.4.. […] Both standard and sample tubes were always analyzed in duplicate. The assay was carried out according to the protocol shown in. Table 1 with the reagents were added to the assay tubes in the order shown in.
According to the protocol for the RIA of the present invention, after the addition of antisera, the contents of the tubes were mixed and incubated for 3 hours at 4° C. The antigen which bound to the antibody was separated by adding 100% saturated ammonium sulfate and centrifuging at 2500×g for 15 minutes. After aspiration of the supernatant, the precipitate was washed one time with 50% saturated ammonium sulfate; then the mixture was centrifuged and the supernatent removed. The precipitate was dissolved in 1.0 ml of distilled water, and the solution was transferred to a scintillation vial containing 10.0 ml of acquasol.
Cross-reactivity of various compounds with pyridostigmine antibody was determined in the RIA. […] Each compound was tested for cross-reactivity with the antibody. The maximum concentration of each compound tested was 500 ng.

[2] = cited from earlier work
acetylcholinesterase = details: cited from earlier work
[3] = Pyridostigmine level in rat sera after intramuscular dose, by RIA; assay type: in vivo; details: for concentration at 5 min / concentration at 10 min / concentration at 0.25 h / concentration at 0.5 h / concentration at 1 h / concentration at 2 h / concentration at 3 h / concentration at 4 h: rat, serum, im
Experimental: (§1) To further validate the RIA and the antibody specificity of the present invention, additional rat studies were conducted. Male rats were housed two per cage at 23° C. with a twelve hour on-off light cycle. The animals were given food and water ad libitum. After sixty days, food was withheld for twelve hours. Then pyridostigmine was administered (1.0 mg. of pyridostigmine bromide in physiologic saline/Kg) intramuscularly to the rats weighing between 450 and 550 grams.
(§2) Groups of three animals were sacrificed by using inhalation anesthetic, Fluothane (0.01% thymol, w/w; and 0.00025% ammonia, w/w) Ayerst Laboratories, New York, N.Y. at various times after dosing, namely at 0, 5, 10, 15, 30, 60 minutes and at 2, 3, 4 and 6 hours. Blood was collected via heart puncture, and serum was separated by centrifugation at 2000 xg for 20 minutes. Table 4 gives the pyridostigmine level in the plasma of three male rats for each time interval as determined by the RIA of the present invention.

central nervous system = details: moderate doses; cited from earlier work
[4] = Pyridostigmine in various rat organs after intramuscular dose, by RIA; assay type: in vivo; details: 1.0 mg/kg i.m.
Experimental: as §1, §2
The brain, fat, heart, muscle and spleen were also removed from the sacrificed rats. The organs from each time period were pooled and kept frozen at -85° C. until analyzed. In preparing tissue homogenates for analysis, tissue samples were first brought to room temperature. Next the tissue samples were washed with ice-cold saline, blotted dry, weighed and homogenized in an ice-cold solution ([…], 0.5%. Triton X, 150 mM sodium chloride, pH 7.4; 2:1, v/w) with a Biohomogenizer (from Biospect Products Inc., Bartlesville, OK), cooling the tubes with ice as needed. The suspension was centrifuged at 15,000 ×g for 30 minutes at […] The supernatant was collected, and the pellet was mixed once more (1:1, w/v) with the solution, and centrifuged as described earlier. The supernatants for like samples were combined. The RIA of the present invention was then followed to determine the amounts of pyridostigmine in the various rat organs. The results of the RIA are given in.

CN(C)C(=O)Oc1ccc[n+](C)c1 [Pyridostigmine]
in vitro hydrolysis [1]: extensive in vitro hydrolysis | IC 50 (50% inhibition of binding of 3H-pyridostigmine to the antibody) (Pyridostigmine Antibody): 4 ng | stability ([2]; alkaline solutions): unstable in alkaline solutions | solubility ([2]; water and alcohol): freely soluble in water and alcohol | cholinesterase inhibition (acetylcholinesterase): reversible cholinesterase inhibitor | Pyridostigmine in the Rat Sera, Mean ± S.D. ([3]; 0 min, 1.0 mg/kg pyridostigmine bromide i.m., male rats): 0 ng/mL | Pyridostigmine in the Rat Sera, individual animals ([3]; 0 min, 1.0 mg/kg pyridostigmine bromide i.m., male rats #1, #2, #3 in order): 0 ng/mL | Pyridostigmine in the Rat Sera, individual animals ([3]; 5 min, 1.0 mg/kg i.m., male rats #1, #2 in order, 1 mg/kg): 550 ng/mL | Pyridostigmine in the Rat Sera, individual animals ([3]; 10 min, 1.0 mg/kg i.m., male rats #1, #2 in order, 1 mg/kg): 470 ng/mL | Pyridostigmine in the Rat Sera, individual animals ([3]; 15 min, 1.0 mg/kg i.m., male rats #1, #2, #3 in order, 1 mg/kg): 300 ng/mL | Pyridostigmine in the Rat Sera, individual animals ([3]; 30 min, 1.0 mg/kg i.m., male rats #1, #2, #3 in order, 1 mg/kg): 220 ng/mL | Pyridostigmine in the Rat Sera, individual animals ([3]; 60 min, 1.0 mg/kg i.m., male rats #1, #2, #3 in order, 1 mg/kg): 110 ng/mL | Pyridostigmine in the Rat Sera, individual animals ([3]; 2 hr, 1.0 mg/kg i.m., male rats #1, #2, #3 in order, 1 mg/kg, 120 min): 25 ng/mL and 15 ng/mL | Pyridostigmine in the Rat Sera, individual animals ([3]; 3 hr, 1.0 mg/kg i.m., male rats #1, #2 in order, 1 mg/kg, 180 min): 14 ng/mL | Pyridostigmine in the Rat Sera, individual animals ([3]; 4 hr, 1.0 mg/kg i.m., male rats #1, #2, #3 in order, 1 mg/kg, 240 min): 5 ng/mL and 6.5 ng/mL | concentration at 5 min ([3]; 1 mg/kg, 5 min, 1.0 mg/kg i.m., male rats #1, #2 in order, read-out: Pyridostigmine in the Rat Sera, individual animals): 0.6 µg/mL | concentration at 5 min ([3]; 1 mg/kg, 5 min, 1.0 mg/kg i.m., male rats, read-out: Pyridostigmine in the Rat Sera, Mean ± S.D.): 0.575 ± 0.0354 µg/mL | concentration at 10 min ([3]; 1 mg/kg, 10 min, 1.0 mg/kg i.m., male rats #1, #2 in order, read-out: Pyridostigmine in the Rat Sera, individual animals): 0.45 µg/mL | concentration at 10 min ([3]; 1 mg/kg, 10 min, 1.0 mg/kg i.m., male rats, read-out: Pyridostigmine in the Rat Sera, Mean ± S.D.): 0.46 ± 0.0141 µg/mL | concentration at 0.25 h ([3]; 1 mg/kg, 15 min, 1.0 mg/kg i.m., male rats #1, #2, #3 in order, read-out: Pyridostigmine in the Rat Sera, individual animals): 0.4 µg/mL | concentration at 0.25 h ([3]; 1 mg/kg, 15 min, 1.0 mg/kg i.m., male rats, read-out: Pyridostigmine in the Rat Sera, Mean ± S.D.): 0.387 ± 0.0808 µg/mL | concentration at 0.5 h ([3]; 1 mg/kg, 30 min, 1.0 mg/kg i.m., male rats #1, #2, #3 in order, read-out: Pyridostigmine in the Rat Sera, individual animals): 0.25 µg/mL | concentration at 0.5 h ([3]; 1 mg/kg, 30 min, 1.0 mg/kg i.m., male rats, read-out: Pyridostigmine in the Rat Sera, Mean ± S.D.): 0.29 ± 0.0964 µg/mL | concentration at 1 h ([3]; 1 mg/kg, 60 min, 1.0 mg/kg i.m., male rats #1, #2, #3 in order, read-out: Pyridostigmine in the Rat Sera, individual animals): 0.14 µg/mL | concentration at 1 h ([3]; 1 mg/kg, 60 min, 1.0 mg/kg i.m., male rats, read-out: Pyridostigmine in the Rat Sera, Mean ± S.D.): 0.13 ± 0.0173 µg/mL | concentration at 2 h ([3]; 1 mg/kg, 2 hr, 1.0 mg/kg i.m., male rats #1, #2, #3 in order, read-out: Pyridostigmine in the Rat Sera, individual animals): 0.024 µg/mL | concentration at 2 h ([3]; 1 mg/kg, 2 hr, 1.0 mg/kg i.m., male rats, read-out: Pyridostigmine in the Rat Sera, Mean ± S.D.): 0.021 ± 0.00551 µg/mL | concentration at 3 h ([3]; 1 mg/kg, 3 hr, 1.0 mg/kg i.m., male rats #1, #2 in order, read-out: Pyridostigmine in the Rat Sera, individual animals): 0.012 µg/mL | concentration at 3 h ([3]; 1 mg/kg, 3 hr, 1.0 mg/kg i.m., male rats, read-out: Pyridostigmine in the Rat Sera, Mean ± S.D.): 0.013 ± 0.00141 µg/mL | concentration at 4 h ([3]; 1 mg/kg, 4 hr, 1.0 mg/kg i.m., male rats #1, #2, #3 in order, read-out: Pyridostigmine in the Rat Sera, individual animals): 0.0075 µg/mL | concentration at 4 h ([3]; 1 mg/kg, 4 hr, 1.0 mg/kg i.m., male rats, read-out: Pyridostigmine in the Rat Sera, Mean ± S.D.): 0.006 ± 0.00126 µg/mL | effect on the central nervous system (central nervous system): usually do not effect the central nervous system | Pyridostigmine in rat organs ([4]; Brain, 1 HR): 5.06 ng/mg protein | Pyridostigmine in rat organs ([4]; Brain, 2 HR): 4.63 ng/mg protein | Pyridostigmine in rat organs ([4]; Brain, 3 HR): 3.92 ng/mg protein | Pyridostigmine in rat organs ([4]; Brain, 4 HR): 3.55 ng/mg protein | Pyridostigmine in rat organs ([4]; Brain, 6 HR): 2.62 ng/mg protein | Pyridostigmine in rat organs ([4]; Brain, 5 min): 3.63 ng/mg protein | Pyridostigmine in rat organs ([4]; Brain, 10 min): 7.65 ng/mg protein | Pyridostigmine in rat organs ([4]; Brain, 15 min): 6.32 ng/mg protein | Pyridostigmine in rat organs ([4]; Brain, 30 min): 6.11 ng/mg protein | Pyridostigmine in rat organs ([4]; Fat, 1 HR): 8.69 ng/mg protein | Pyridostigmine in rat organs ([4]; Fat, 2 HR): 6.46 ng/mg protein | Pyridostigmine in rat organs ([4]; Fat, 3 HR): 5.73 ng/mg protein | Pyridostigmine in rat organs ([4]; Fat, 4 HR): 3.26 ng/mg protein | Pyridostigmine in rat organs ([4]; Fat, 6 HR): 2.91 ng/mg protein | Pyridostigmine in rat organs ([4]; Fat, 5 min): 5.98 ng/mg protein | Pyridostigmine in rat organs ([4]; Fat, 10 min): 8.11 ng/mg protein | Pyridostigmine in rat organs ([4]; Fat, 15 min): 15.37 ng/mg protein | Pyridostigmine in rat organs ([4]; Fat, 30 min): 9.05 ng/mg protein | Pyridostigmine in rat organs ([4]; Heart, 1 HR): 78.29 ng/mg protein | Pyridostigmine in rat organs ([4]; Heart, 2 HR): 52.4 ng/mg protein | Pyridostigmine in rat organs ([4]; Heart, 3 HR): 48.57 ng/mg protein | Pyridostigmine in rat organs ([4]; Heart, 4 HR): 23.11 ng/mg protein | Pyridostigmine in rat organs ([4]; Heart, 6 HR): 8.52 ng/mg protein | Pyridostigmine in rat organs ([4]; Heart, 5 min): 43.78 ng/mg protein | Pyridostigmine in rat organs ([4]; Heart, 10 min): 57.5 ng/mg protein | Pyridostigmine in rat organs ([4]; Heart, 15 min): 70.4 ng/mg protein | Pyridostigmine in rat organs ([4]; Heart, 30 min): 75.96 ng/mg protein | Pyridostigmine in rat organs ([4]; Muscle, 1 HR): 9.46 ng/mg protein | Pyridostigmine in rat organs ([4]; Muscle, 2 HR): 4.99 ng/mg protein | Pyridostigmine in rat organs ([4]; Muscle, 3 HR): 4.8 ng/mg protein | Pyridostigmine in rat organs ([4]; Muscle, 4 HR): 3.94 ng/mg protein | Pyridostigmine in rat organs ([4]; Muscle, 6 HR): 3.08 ng/mg protein | Pyridostigmine in rat organs ([4]; Muscle, 5 min): 9.63 ng/mg protein | Pyridostigmine in rat organs ([4]; Muscle, 10 min): 13.57 ng/mg protein | Pyridostigmine in rat organs ([4]; Muscle, 15 min): 11.67 ng/mg protein | Pyridostigmine in rat organs ([4]; Muscle, 30 min): 10.08 ng/mg protein | Pyridostigmine in rat organs ([4]; Spleen, 1 HR): 2.48 ng/mg protein | Pyridostigmine in rat organs ([4]; Spleen, 2 HR): 2.40 ng/mg protein | Pyridostigmine in rat organs ([4]; Spleen, 3 HR): 2.03 ng/mg protein | Pyridostigmine in rat organs ([4]; Spleen, 4 HR): 1.92 ng/mg protein | Pyridostigmine in rat organs ([4]; Spleen, 6 HR): 1.86 ng/mg protein | Pyridostigmine in rat organs ([4]; Spleen, 5 min): 10.35 ng/mg protein | Pyridostigmine in rat organs ([4]; Spleen, 10 min): 6.26 ng/mg protein | Pyridostigmine in rat organs ([4]; Spleen, 15 min): 6.15 ng/mg protein | Pyridostigmine in rat organs ([4]; Spleen, 30 min): 4.44 ng/mg protein

Reference: US5268308A, “Immunoassay for pyridostigmine” (priority 1989, dated 1993)
